We go through twelve molecules from publication PMC7496931, “Activation of Sirtuin 2 Inhibitors Employing Photoswitchable Geometry and Aqueous Solubility” (Chemmedchem, 2020).

Where two headings read alike, the source gives them in different places.

For data set [1], the target named is T1, Sirt2 (Homo sapiens, UniProt Q8IXJ6).
T1 construct: Expression and purification of Sirt1_133−747, Sirt2_56−356, and Sirt3_118−395 was carried out as described previously; made in house
T1 sequence (Q8IXJ6 56-356): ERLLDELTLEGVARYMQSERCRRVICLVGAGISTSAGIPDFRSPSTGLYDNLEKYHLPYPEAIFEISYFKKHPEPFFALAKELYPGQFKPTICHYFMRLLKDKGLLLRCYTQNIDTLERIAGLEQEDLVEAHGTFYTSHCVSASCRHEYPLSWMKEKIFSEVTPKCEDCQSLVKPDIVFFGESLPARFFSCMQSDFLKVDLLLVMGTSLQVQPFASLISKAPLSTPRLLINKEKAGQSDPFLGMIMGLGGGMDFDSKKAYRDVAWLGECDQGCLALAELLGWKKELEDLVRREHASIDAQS
Also noted: method as in PMID 29685963. To be noted: lead 3, previously published; read-out: Sirt2 inhibition, IC50; cited from earlier work.

A further data set addresses T2, Sirt1 (Homo sapiens, UniProt Q96EB6).
T2 construct: Expression and purification of Sirt1_133−747, Sirt2_56−356, and Sirt3_118−395 was carried out as described previously; made in house
T2 sequence (Q96EB6 133-747): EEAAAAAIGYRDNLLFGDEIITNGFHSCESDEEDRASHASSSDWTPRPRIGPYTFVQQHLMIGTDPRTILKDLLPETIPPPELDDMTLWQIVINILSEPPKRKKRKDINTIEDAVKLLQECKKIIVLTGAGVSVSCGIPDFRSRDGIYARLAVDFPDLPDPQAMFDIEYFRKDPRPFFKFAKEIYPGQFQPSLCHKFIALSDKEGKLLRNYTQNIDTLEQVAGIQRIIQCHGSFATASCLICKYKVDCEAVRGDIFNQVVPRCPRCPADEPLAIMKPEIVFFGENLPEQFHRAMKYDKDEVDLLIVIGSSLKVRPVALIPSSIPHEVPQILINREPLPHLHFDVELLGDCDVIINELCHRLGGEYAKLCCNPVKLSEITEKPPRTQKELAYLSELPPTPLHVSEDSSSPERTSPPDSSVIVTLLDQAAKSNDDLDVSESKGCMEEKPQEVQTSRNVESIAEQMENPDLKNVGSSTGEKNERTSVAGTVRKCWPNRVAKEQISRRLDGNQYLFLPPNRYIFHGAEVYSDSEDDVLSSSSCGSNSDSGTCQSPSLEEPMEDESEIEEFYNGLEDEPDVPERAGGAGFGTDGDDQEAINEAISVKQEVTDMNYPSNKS
Put plainly: Fluorescence-based ZMAL deacetylase activity assay, Sirt1. To be noted: non-irradiated. Format: biochemical. The procedure: (§1) The effect of the compounds on deacetylase activity of three human sirtuin isotypes (Sirt1–3) was investigated by a homogeneous fluorescence‐based assay, using (Z)‐Lys(acetyl)‐AMC (ZMAL) as substrate. In order to determine the impact of photoisomerization, the respective compounds were irradiated (365 nm, 5 min) in DMSO prior to incubation in the enzyme assay mixture. The results of the irradiated probes were finally compared to non‐irradiated measurements.
(§2) Cloning, expression and purification of recombinant proteins: Expression and purification of Sirt1_133−747, Sirt2_56−356, and Sirt3_118−395 was carried out as described previously.27 Identity and purity were verified by SDS‐PAGE.
(§3) Fluorescence‐based activity assay: The inhibitory effect of compounds on Sirt1–3 was detected via a previously reported fluorescence‐based assay.29 The synthetic substrate (Z)‐Lys(acetyl)‐AMC (ZMAL) is deacetylated by sirtuins, followed by tryptic digestion and thereby release of 7‐aminomethylcoumarin, leading to a fluorescent readout. Inhibition was determined by comparing percentage substrate conversion to a DMSO control after subtraction of the blank fluorescence signal. All compounds were tested at 100 or 50 μM and 10 μM respectively. […] IC50 values were calculated with OriginPro 9.0 G using a non‐linear regression to fit the dose response curve (Figure S6). An enzyme‐free blank control and a 100 % conversion control using AMC instead of ZMAL were measured as well. Inhibition measurements were performed in biological duplicates for all compounds. […]
(§4) Fluorescence-Based Activity Assay (ZMAL-Assay)
(§5) The influence of the synthesized compounds on the deacetylase activity of the class I sirtuins Sirt1–3 was determined in a homogenous fluorescence-based enzyme assay, using the artificial substrate Z-(Ac)Lys-AMC (ZMAL). ZMAL is processed by sirtuins yielding Z-Lys-AMC.
(§6) The latter is subsequently cleaved by tryptic digestion, releasing 7-amino-4-methylcoumarin (AMC), excitation of which leads to a fluorescent read out (λex=390 nm; λem=460 nm). Instead, […]
(§7) contribute to the fluorescence signal. Therefore, the fluorescence intensity is proportional to the activity of the respective sirtuin.
(§8) After subtraction of the blank fluorescence signal (without enzyme) from the signal of the respective probe, the residual signal intensity is related to a 100 % conversion control (AMC), […]
(§9) yielding the percentage substrate conversion. Comparison of the determined substrate conversion with a no-inhibition DMSO control yields the percentage inhibition at the respective […]
(§10) For determination of IC50, inhibitory activity of the respective compound was determined at 8 to 10 distinct concentrations. The measured values were analysed by a non-linear fit to the dose-response curve using a four parameter logistic model (Figure S6):
(§11) Figure S6: Non-linear regression of the dose-response curves of compounds 15c and 15f at the thermal equilibrium (∆, black) and after 5 minutes of 365 nm irradiation (red). […]
A maximal polarization control using just DMSO and a minimal polarization control using 1 µL of the 400 µM solution of 22 instead of inhibitor were performed as well as a blank control containing 1 µL of DMSO in 19 µL assay buffer. The mixture was incubated 10 min at 37 °C […]
(§12) (1 picture or pasted object on this page, not shown here)

Data set [2] deals with T1, Sirt2. Briefly: Fluorescence-based ZMAL deacetylase activity assay, Sirt2. Format: biochemical. To be noted: non-irradiated; for inhibition at 100 µM / inhibition at 10 µM: read-out: Sirt2 inhibition, percent inhibition relative to controls; for IC50: read-out: Sirt2 inhibition, IC50. As for the experimental part:
as §1, §2, §3, §4, §5, §6, §7, §8, §9, §10, §11
(§13) A maximal polarization control using just DMSO and a minimal polarization control using 1 µL of the 400 µM solution of 22 instead of inhibitor were performed as well as a blank control containing 1 µL of DMSO in 19 µL assay buffer. The mixture was incubated 10 min at 37 °C

The target of the next data set is T3, Sirt3 (Homo sapiens, UniProt Q9NTG7).
T3 construct: Expression and purification of Sirt1_133−747, Sirt2_56−356, and Sirt3_118−395 was carried out as described previously; made in house
T3 sequence (Q9NTG7 118-395): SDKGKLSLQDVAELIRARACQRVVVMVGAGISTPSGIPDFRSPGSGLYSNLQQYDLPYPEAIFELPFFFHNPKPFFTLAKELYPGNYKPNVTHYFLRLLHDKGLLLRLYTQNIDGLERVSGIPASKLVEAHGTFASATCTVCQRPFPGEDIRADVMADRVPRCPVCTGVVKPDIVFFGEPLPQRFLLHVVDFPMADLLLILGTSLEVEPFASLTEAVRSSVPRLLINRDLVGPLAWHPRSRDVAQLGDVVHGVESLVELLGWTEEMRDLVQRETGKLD
Briefly: Fluorescence-based ZMAL deacetylase activity assay, Sirt3. It counts as biochemical. The settings on record: non-irradiated; for IC50: read-out: Sirt3 inhibition, IC50. As for the experimental part:
as §1, §2, §3, §4, §5, §6, §7, §8, §9, §10, §11, §13

A short description of data set [3]: UV/Vis spectra and half-life of thermal Z→E isomerization. It counts as physicochemical. As for the experimental part: Photochemistry: All photoisomerization experiments were conducted under ruby light of 630 nm and total exclusion of daylight. Illumination was executed using a Bio‐Link 254 Crosslinker from Vilber‐Lourmat equipped with six Vilber‐Lourmat T8‐L lamps (8 W, 365 nm). Visible light radiation of 630 nm (ruby) and 452 nm (blue) was derived from a Paulmann FlexLED 3D strip. All compounds were irradiated in solution using spectrophotometric grade solvents. Photoisomerization and UV/Vis‐spectra measurement was conducted in quartz glass cuvettes (114‐QS, Hellma Analytics) at room temperature.
UV/Vis Spectra and Half-Life of Thermal Isomerization
The half-life of the thermal Z→E isomerization after 5 minutes of 365 nm irradiation was determined by UV/Vis-spectroscopy. Therefore, solutions of the respective compounds (50 µM) in 5%, 50% or 90% DMSO in enzyme assay buffer (v/v) were prepared. An initial spectrum of the thermal equilibrium was recorded. After 5 minutes of irradiation with 365 nm the increase of absorbance at the thermal equilibrium maximum (λ∆max) was recorded as exemplified by compound 15c (Figure S3). Absorbance at λ = λ ∆max was plotted as a function of time. Non-linear regression yielded the half-life of the thermal Z→E isomerization (Table S1). For extrapolation of the reaction kinetics, the plateau value was set to the initial absorbance at λ=λ∆max. The following equation was used for non-linear regression:
y = (y0 − Plateau)e−kx + Plateau
Figure S3: Left: UV-Vis spectrum of 15c (50 µM) in assay buffer (5% DMSO, v/v) at the thermal equilibrium (∆) and the photostationary state (PSS) after UV irradiation (365 nm). Right:
Absorbance of 15c (50 µm) in assay buffer (5% DMSO, v/v) at λ∆max = 328 nm after 5 minutes of UV (365 nm) irradiation.
as §12

Setting [4] is: read-out: Sirt3 inhibition, percent inhibition relative to controls.
The mark [5] stands for this setting: read-out: Sirt1 inhibition, percent inhibition relative to controls.

The term IC50 denotes the concentration needed to halve the response being measured. `Cc1cc(O)cc(C)c1/C=C/c1cncc(C(N)=O)c1` [compound 3]: the IC50 on Sirt2 [1] was 25 µM.
`CCOC(=O)c1cncc(/N=N/c2cc(C)c(N)c(C)c2)c1` [compound 11]: the “Sirt1 inhibition (class)” value on Sirt1 is “n.i. (n.i.: no inhibition detected (<30 % @ 100 μM))”. For the same molecule, the “Sirt2 inhibition (class)” value at Sirt2 [2] was “n.i. (n.i.: no inhibition detected (<30 % @ 100 μM))”. For the same molecule, the “Sirt3 inhibition (class)” value at Sirt3 is “n.i. (n.i.: no inhibition detected (<30 % @ 100 μM))”.
Usually inhibition stands for the change of the read-out against control, counted positive when it falls. Regarding `CNC(=O)c1cncc(/N=N/c2cc(C)c(N)c(C)c2)c1` [12 a], the inhibition at 100 µM on Sirt1 (@ 100 μM, read-out: Sirt1 inhibition, percent inhibition relative to controls) came to 33%; on Sirt2 [2], 45%; on Sirt3 (setting [4]) it was 45%.
In the case of `Cc1cc(O)cc(C)c1/N=N/c1cncc(C(N)=O)c1` [7 a], on Sirt1 (setting [5]), the inhibition at 50 µM worked out at 14%. For the same molecule, the IC50 on Sirt2 [2] came out at 7.9 ± 0.6 µM; on Sirt3 it was 9.5 ± 0.9 µM.
`CCNC(=O)c1cncc(/N=N/c2cc(C)c(N)c(C)c2)c1` [12 b]: at Sirt1, the “Sirt1 inhibition (class)” value was “n.i. (n.i.: no inhibition detected (<30 % @ 100 μM))”. Moreover, the inhibition at 10 µM came out at 16% on Sirt2 [2] and 11% at Sirt3 (setting [4]).
For the molecule `Cc1cc(/N=N/c2cncc(C(=O)NCCO)c2)cc(C)c1N` [12 d], the “Sirt1 inhibition (class)” value on Sirt1 was “n.i. (n.i.: no inhibition detected (<30 % @ 100 μM))”. Further, the inhibition at 100 µM at Sirt2 [2] and at Sirt3 (setting [4]) was 43% throughout.
The melting point is the temperature of the solid-liquid transition. `NC(=O)c1cncc(OCc2cccc(/N=N/c3ccc(N4CCOCC4)cc3)c2)c1` [20 d] yielded a melting point of 202.1 °C. In addition, the “Sirt1 inhibition (class)” value on Sirt1 is “n.i. (n.i.: no inhibition detected (<30 % @ 100 μM))”. Moreover, on Sirt2 [2], the inhibition at 10 µM was 49% and the IC50 is about 10 µM. On Sirt3 (setting [4]), the inhibition at 10 µM is 33%. The “thermal Z→E isomerization (in words)” value in data set [3] (aqueous solution) was “rapid thermal Z→E isomerization”.
As for `Cc1cc(/N=N/c2cncc(C(N)=O)c2)cc(C)c1O` [7 b], the melting point was found to be 166.4 °C. Besides, at Sirt1 (setting [5]), the inhibition at 50 µM is 19%. In addition, on Sirt2 [2], the IC50 was found to be 10.8 ± 0.6 µM. In addition, the IC50 at Sirt3 turned out to be 7.9 ± 0.5 µM. The “thermal Z→E isomerization (in words)” value in data set [3] (in acetonitrile) was “rapid thermal isomerization”.
As for `CCCCNC(=O)c1cncc(/N=N/c2cc(C)c(N)c(C)c2)c1` [12 c], the “Sirt1 inhibition (class)” value at Sirt1 was “n.i. (n.i.: no inhibition detected (<30 % @ 100 μM))”. In addition, the inhibition at 10 µM stood at 17% at Sirt2 [2] and 11% on Sirt3 (setting [4]).
Consider `COC(=O)c1cncc(/N=N/c2cc(C)c(N)c(C)c2)c1` [6 f], for which the melting point was found to be 190.6 °C. Further, the “Sirt1 inhibition (class)” value on Sirt1 is listed as “n.i. (n.i.: no inhibition detected (<30 % @ 100 μM))”. The “Sirt2 inhibition (class)” value on Sirt2 [2] is recorded as “n.i. (n.i.: no inhibition detected (<30 % @ 100 μM))”. On Sirt3, the “Sirt3 inhibition (class)” value is on record as “n.i. (n.i.: no inhibition detected (<30 % @ 100 μM))”.
With `CN(C)c1ccc(/N=N/c2cncc(C(N)=O)c2)cc1` [7 e], the inhibition at 10 µM is 17% on Sirt1 (setting [5]), 54% at Sirt2 [2] and 66% on Sirt3 (setting [4]).
The molecule `COc1cc(/N=N/c2cncc(C(N)=O)c2)cc(OC)c1O` [7 d] had a melting point of 250.2 °C. In addition, the inhibition at 10 µM on Sirt1 (setting [5]) turned out to be 10%. On Sirt2 [2], the inhibition at 10 µM came to 62%. At Sirt3 (@ 50 μM, read-out: Sirt3 inhibition, percent inhibition relative to controls), the inhibition at 50 µM amounted to 39%.
